Laboratory results reported in patent US8367702B2, “Quinolone derivative” (Astellas Pharma Inc., priority 2007, dated 2013).

Key:
NADPH oxidase = assay: Inhibitory activity on ROS production derived from NADPH oxidase (HUVECs, nitrotetrazolium blue); assay type: cell-based, Human; details: 1.0 μM test compound, 25 mM glucose, 200 μM NADPH, 2 hours
Protocol: Test 1: Inhibitory Activity on ROS Production Derived from NADPH Oxidase
This activity was measured by using Human Umbilical Vein Endothelial Cells (HUVECs). The test method is as follows.
3×10^4 cells/well (100 μL) of HUVECs were seeded into a 96-well plate coated with collagen. The culture medium was MCDB131 medium containing 10% fetal bovine serum, 2 mM glutamine, 100 U/mL penicillin, 100 U/mL streptomycin, and 10 ng/mL recombinant human basic-FGF. On the next day, the culture medium was removed by an aspirator, and 100 μL/well of phosphate buffered saline containing 25 mM glucose, 200 μM NADPH, 0.2% nitrotetrazolium blue, and test compounds followed by culturing at 37° C. Nitrotetrazolium blue reacts with intracellularly produced ROS and turns into a water-insoluble blue pigment. After 2 hours, the supernatant was discarded, and the wells were washed three times with phosphate buffered physiological saline. Then, 100 μL/well of 90% DMSO water containing 0.04M sodium hydroxide was added to each well to completely dissolve the pigment, and an absorbance at a wavelength of 715 nm was measured. By taking an absorbance with no addition of a test compound as A, an absorbance […], and an absorbance with addition of glucose, NADPH and a test compound as C, ROS production inhibitory rate was calculated according to the following equation. Inhibition rate (%)=[…]
Abbreviation “Ex” in the table represents Example Compound No. which will follow, and abbreviation “Inh” represents an ROS production inhibition rate. It was confirmed that the compounds of the formula (I) of the present invention have an excellent ROS production inhibitory activity.

[1] = Oral glucose tolerance test using mice; assay type: in vivo; details: Mus musculus, 0.5 h, 3 mg/kg orally 5 minutes prior to oral glucose loading (2 g/kg), 30 minutes after glucose loading, relative to control group, male ICR or C57BL/6 J mice, read-out: blood glucose-lowering rate
Excerpt: Test 2: Oral Glucose Tolerance Test Using Mice
This test is intended to evaluate an inhibitory action of a test compound on elevation of the blood glucose level after glucose loading, using mice. A test method is described hereinafter.
Male ICR or C57BL/6 J mice (6 weeks old, available from CLEA JAPAN, Inc.) pre-bred for one week were fasted overnight and used as test animals. A test compound was suspended in 10% PEG-60 Hydrogenated Castor Oil (HCO-60) aqueous solution, and was orally administered (3 mg/kg) to animals 5 minutes prior to oral glucose loading (2 g/kg). The control group was given a 10% HCO-60 aqueous solution. According to the following equation, a blood glucose-lowering rate (%) at 30 minutes after glucose loading was calculated for the test compound-treated group relative to the control group. An increase in the blood glucose level of the test compound-treated group and an increase in the blood glucose level of the control group were taken as A and B, respectively. Blood glucose-lowering rate (%)=100−[(A/B)×100]

Row | melting point | SMILES | Inh(%) ROS production inhibition rate (NADPH oxidase) | inhibition in vivo at 3 mg/kg [1]
1 | 201 to 203 °C | Cc1c(CCCCCOc2ccc(F)cc2F)[nH]c2ccc(F)cc2c1=O [Ex 28] | – | –
2 | 139 to 140 °C | Cc1c(COCCCCOc2cccc3c2OC(C)(C)C3)[nH]c2ccccc2c1=O [Ex 52] | – | –
3 | 155 to 157 °C | Cc1c(COCCCCOCCC2CC2)[nH]c2ccccc2c1=O [Ex 53] | – | –
4 | 189 to 190 °C | Cc1c(COc2cc(OCCC3(O)CCOCC3)ccn2)[nH]c2ccccc2c1=O [Ex 179] | – | –
5 | 212 to 215 °C | Cc1c(CCc2cc(OCC3CCOCC3)ccn2)[nH]c2ccccc2c1=O [Ex 184] | – | –
6 | 160 to 163 °C | Cc1c(COc2cccc(N3CCC(OCCC(C)(C)O)CC3)c2)[nH]c2ccccc2c1=O [Ex 194] | – | –
7 | 155 to 157 °C | Cc1c(COCC(C)(C)COC(=O)N2CCOCC2)[nH]c2ccccc2c1=O [Ex 204] | – | –
8 | 222 to 224 °C | Cc1c(CCC2CCN(C(=O)C3CC3)CC2)[nH]c2ccccc2c1=O [Ex 209] | – | –
9 | > 270 °C (dec.) | CCNC(=O)N[C@H]1CC[C@H](OCc2[nH]c3ccccc3c(=O)c2C)CC1 [Ex 224] | – | –
10 | > 231 °C (dec.) | Cc1c(COc2ncc(C(=O)NC3CCCC3)cn2)[nH]c2ccccc2c1=O [Ex 230] | – | –
11 | 203 to 205 °C | Cc1c(CCC2CCN(C(=O)CC(C)(C)O)CC2)[nH]c2ccccc2c1=O [Ex 271] | – | –
12 | 211 to 213 °C | CCOC(=O)N1CCC(CCc2[nH]c3ccccc3c(=O)c2C)CC1 [Ex 276] | 118.2 ± 4.0% | –
13 | 225 to 228 °C | CCS(=O)(=O)N1CCC(CCc2[nH]c3ccccc3c(=O)c2C)CC1 [Ex 279] | 98.9 ± 1.0% | –
14 | 240 to 243 °C | Cc1cccc(CNC(=O)OCc2[nH]c3ccccc3c(=O)c2C)c1 [Ex 283] | 61.6 ± 1.7% | –
15 | 200 to 202 °C | Cc1c(COc2cccc(OCC3CCOCC3)c2)[nH]c2ccccc2c1=O [Example 2, 3-methyl-2-{[3-(tetrahydro-2H-pyran-4-ylmethoxy)phenoxy]methyl}quinolin-4(1H)-one] | 91.9 ± 5.2% | –
16 | 200 to 202 °C | Cc1c(COc2ccc(CCC3(O)CCCC3)cc2)[nH]c2ccccc2c1=O [Example 3, 2-({4-[2-(1-hydroxycyclopentyl)ethyl]phenoxy}methyl)-3-methylquinolin-4(1H)-one] | – | –
17 | 268 to 271 °C | CCOC(=O)N[C@H]1CC[C@H](OCc2[nH]c3ccccc3c(=O)c2C)CC1 [Example 5, ethyl {trans-4-[(3-methyl-4-oxo-1,4-dihydroquinolin-2-yl]methoxy]cyclohexyl}carbamate] | – | –
18 | 245 to 247 °C | CCS(=O)(=O)N[C@H]1CC[C@H](OCc2[nH]c3ccccc3c(=O)c2C)CC1 [Example 6, N-{trans-4-[(3-methyl-4-oxo-1,4-dihydroquinolin-2-yl)methoxy]cyclohexyl}ethanesulfonamide] | 79.9 ± 1.2% | –
19 | 216 to 217 °C | Cc1c(CO[C@H]2CC[C@H](N3CCCC3=O)CC2)[nH]c2ccccc2c1=O [Example 7, 3-methyl-2-({[trans-4-(2-oxopyrrolidin-1-yl)cyclohexyl]oxy}methyl)quinolin-4(1H)-one] | – | –
20 | 137 to 138 °C | Cc1c(COc2cc(OCCC3CCOCC3)ccn2)[nH]c2ccccc2c1=O [Example 8, 3-methyl-2-[({4-[2-(tetrahydro-2H-pyran-4-yl)ethoxy]pyridin-2-yl}oxy)methyl]quinolin-4(1H)-one] | 91.5 ± 4.7% | 70 to 105%
21 | 221 to 223 °C | Cc1c(COc2cccc(N3CCOCC3=O)c2)[nH]c2ccccc2c1=O [Example 9, 3-methyl-2-{[3-(3-oxomorpholin-4-yl)phenoxy]methyl}quinolin-4(1H)-one] | 88.7 ± 1.5% | –
22 | > 310 °C (dec.) | CCCCCCCS(=O)(=O)Cc1[nH]c2ccccc2c(=O)c1C [Example 19, 2-[(heptylsulfonyl)methyl]-3-methylquinolin-4(1H)-one] | 99.1 ± 0.0% | –

The remaining lines, values behind:

Row | SMILES | melting point | Inh(%) ROS production inhibition rate (NADPH oxidase) | inhibition in vivo at 3 mg/kg [1]
23 | Cc1c(COCCCCOc2ccc(C#N)cc2)[nH]c2ccccc2c1=O [Ex 49] | – | 90.8 ± 5.2% | –
24 | COCCc1ccc(OCCCCOCc2[nH]c3ccccc3c(=O)c2C)cc1 [Ex 50] | – | 80.5 ± 2.5% | –
25 | COC(C)(C)CCOCCCCOCc1[nH]c2ccccc2c(=O)c1C [Ex 55] | – | 57.3 ± 2.3% | –
26 | CC(=O)N1CCC(COc2cccc(OCc3[nH]c4ccccc4c(=O)c3C)c2)CC1 [Ex 98] | – | 101.5 ± 1.9% | –
27 | Cc1c(COc2cccc(OCCc3ccncc3)c2)[nH]c2ccccc2c1=O [Ex 127] | – | 85.3 ± 2.9% | –
28 | CCCCCC(=O)N1CCC(OCc2[nH]c3ccc(F)cc3c(=O)c2C)CC1 [Ex 128] | – | 77.7 ± 3.9% | –
29 | Cc1c(COc2cccc(OCCC(C)(C)O)c2)[nH]c2ccccc2c1=O [Ex 141] | – | – | 70 to 105%
30 | Cc1c(COc2cccc(OCC3CCOCC3)n2)[nH]c2ccccc2c1=O [Ex 143] | 221 to 223 °C | – | –
31 | Cc1c(COc2cc(OCC3CCOCC3)ccn2)[nH]c2ccc(F)cc2c1=O [Ex 153] | – | – | 70 to 105%
32 | Cc1c(COc2ccc3c(c2)N(C(=O)CC2CCOCC2)CCC3)[nH]c2ccc(F)cc2c1=O [Ex 166] | – | 84.3 ± 2.4% | –
33 | Cc1c(CN2CCc3cc(OCC4CCOCC4)ccc3C2)[nH]c2ccccc2c1=O [Ex 180] | – | 69.5 ± 1.3% | –
34 | CCCCCC(=O)N1CCN(Cc2[nH]c3ccccc3c(=O)c2C)CC1 [Ex 181] | 171 to 173 °C | – | –
35 | COC(C)(C)CCOc1ccnc(OCc2[nH]c3ccccc3c(=O)c2C)c1 [Ex 186] | – | – | 70 to 105%
36 | Cc1c(COc2cccc(N3CCC(O)CC3)c2)[nH]c2ccccc2c1=O [Ex 198] | – | 97.5 ± 6.1% | –
37 | Cc1c(COc2cccc(N3CCC(C)(O)CC3)c2)[nH]c2ccccc2c1=O [Ex 199] | – | 93.1 ± 1.1% | –
38 | Cc1c(COCCC2(O)CCCCC2)[nH]c2ccccc2c1=O [Ex 205] | 125 to 127 °C | – | –
39 | Cc1c(COC2CCOCC2)[nH]c2ccccc2c1=O [Ex 212] | 194 to 196 °C | – | –
40 | Cc1c(COc2ccc3c(c2)CCN(C(=O)CC(C)(C)O)C3)[nH]c2ccccc2c1=O [Ex 213] | 135 to 138 °C | – | –
41 | Cc1c(COCCN(C(=O)C2CCOCC2)C2CCCCC2)[nH]c2ccccc2c1=O [Ex 228] | – | 66.3 ± 2.1% | –
42 | Cc1c(CO[C@H]2CC[C@H](NC(=O)CC(C)(C)O)CC2)[nH]c2ccccc2c1=O [Ex 248] | – | – | 89%
43 | Cc1c(COC(=O)NCCCc2ccccc2)[nH]c2ccccc2c1=O [Ex 284] | – | 64.2 ± 0.1% | 70 to 105%
44 | Cc1c(COC(=O)Nc2cccc(Cc3ccccc3)c2)[nH]c2ccccc2c1=O [Ex 285] | – | 67.3 ± 0.1% | –
45 | Cc1c(COC(=O)NCC2CCCCC2)[nH]c2ccccc2c1=O [Ex 291] | – | 118.8 ± 0.4% | –
46 | Cc1c(COc2cc(OCCC(C)(C)O)ccn2)[nH]c2ccccc2c1=O [Example 4, 2-({[4-(3-hydroxy-3-methylbutoxy)pyridin-2-yl]oxy}methyl)-3-methylquinolin-4(1H)-one] | 127 to 130 °C | 84.7 ± 2.1% | 70 to 105%
47 | Cc1c(COc2cc(OCCC(C)(C)O)cc(N3CCOCC3)c2)[nH]c2ccccc2c1=O [Example 10, 2-{[3-(3-hydroxy-3-methylbutoxy)-5-morpholin-4-ylphenoxy]methyl}-3-methylquinolin-4(1H)-one] | 189 to 190 °C | – | –
